Assay results: PubChem BioAssay (NCI)
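How tested: cells in 96-well plates exposed to compound for 48 hours at five concentrations. Abbreviation: GI50, concentration required for 50% inhibition of growth. TGI marks complete inhibition of growth.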

How the values were obtained:
Experiment in all cases: inhibition of tumour cell growth, NCI panel, 48 h; in the data active = GI50 below about 0.43 µM; inactive = the rest
SN12C renal = system: SN12C renal
UACC-62 melanoma = system: UACC-62 melanoma
HT29 colon = system: HT29 colon
SK-MEL-5 melanoma = system: SK-MEL-5 melanoma
UO-31 renal = system: UO-31 renal
HS 578T breast = system: HS 578T breast
PC-3 prostate = system: PC-3 prostate
OVCAR-8 ovarian = system: OVCAR-8 ovarian
SK-OV-3 ovarian = system: SK-OV-3 ovarian
OVCAR-3 ovarian = system: OVCAR-3 ovarian
IGROV1 ovarian = system: IGROV1 ovarian
KM12 colon = system: KM12 colon
RPMI-8226 leukemia = system: RPMI-8226 leukemia
K-562 leukemia = system: K-562 leukemia
HOP-62 NSCLC = system: HOP-62 NSCLC
COLO 205 colon = system: COLO 205 colon
BT-549 breast = system: BT-549 breast
RXF 393 renal = system: RXF 393 renal
SF-539 CNS = system: SF-539 CNS
NCI-H23 lung = system: NCI-H23 lung
HCC-2998 colon = system: HCC-2998 colon
MCF7 breast = system: MCF7 breast
M14 melanoma = system: M14 melanoma
SNB-19 CNS = system: SNB-19 CNS
A498 renal = system: A498 renal
UACC-257 melanoma = system: UACC-257 melanoma
OVCAR-4 ovarian = system: OVCAR-4 ovarian
786-0 renal = system: 786-0 renal
NCI-H522 lung = system: NCI-H522 lung
SR leukemia = system: SR leukemia
SNB-75 CNS = system: SNB-75 CNS
MDA-MB-231 breast = system: MDA-MB-231 breast
SK-MEL-28 melanoma = system: SK-MEL-28 melanoma
NCI-H226 lung = system: NCI-H226 lung
ACHN renal = system: ACHN renal
MDA-MB-435 = system: MDA-MB-435
SW-620 colon = system: SW-620 colon
MOLT-4 leukemia = system: MOLT-4 leukemia
LOX IMVI melanoma = system: LOX IMVI melanoma
CAKI-1 renal = system: CAKI-1 renal
NCI/ADR-RES ovarian = system: NCI/ADR-RES ovarian
SF-268 CNS = system: SF-268 CNS
HCT-116 colon = system: HCT-116 colon
TK-10 renal = system: TK-10 renal
HOP-92 NSCLC = system: HOP-92 NSCLC
MALME-3M melanoma = system: MALME-3M melanoma
OVCAR-5 ovarian = system: OVCAR-5 ovarian
A549 NSCLC = system: A549 NSCLC
T-47D breast = system: T-47D breast
CCRF-CEM leukemia = system: CCRF-CEM leukemia
SK-MEL-2 melanoma = system: SK-MEL-2 melanoma
NCI-H460 lung = system: NCI-H460 lung
SF-295 CNS = system: SF-295 CNS
HL-60(TB) leukemia = system: HL-60(TB) leukemia
HCT-15 colon = system: HCT-15 colon
U251 CNS = system: U251 CNS
DU-145 prostate = system: DU-145 prostate

Nc1c(C(=O)c2cccc(CCC3(O)CCCC3)c2)cnn1-c1ccc(F)cc1
20.2 µM: TGI (HOP-92 NSCLC)
> 25 µM: TGI (SN12C renal) | TGI (UACC-62 melanoma) | TGI (HT29 colon) | TGI (UO-31 renal) | TGI (HS 578T breast) | TGI (PC-3 prostate) | TGI (OVCAR-8 ovarian) | TGI (SK-OV-3 ovarian) | TGI (OVCAR-3 ovarian) | TGI (IGROV1 ovarian) | TGI (KM12 colon) | TGI (RPMI-8226 leukemia) | TGI (K-562 leukemia) | TGI (HOP-62 NSCLC) | TGI (COLO 205 colon) | TGI (BT-549 breast) | TGI (RXF 393 renal) | TGI (SF-539 CNS) | TGI (NCI-H23 lung) | TGI (HCC-2998 colon) | TGI (MCF7 breast) | TGI (M14 melanoma) | TGI (SNB-19 CNS) | TGI (A498 renal) | TGI (UACC-257 melanoma) | TGI (OVCAR-4 ovarian) | TGI (786-0 renal) | TGI (NCI-H522 lung) | TGI (SR leukemia) | TGI (SNB-75 CNS) | TGI (MDA-MB-231 breast) | TGI (SK-MEL-28 melanoma) | TGI (NCI-H226 lung) | TGI (ACHN renal) | TGI (MDA-MB-435) | TGI (SW-620 colon) | TGI (MOLT-4 leukemia) | TGI (LOX IMVI melanoma) | TGI (CAKI-1 renal) | TGI (NCI/ADR-RES ovarian) | TGI (SF-268 CNS) | TGI (HCT-116 colon) | TGI (TK-10 renal) | TGI (MALME-3M melanoma) | TGI (OVCAR-5 ovarian) | TGI (A549 NSCLC) | TGI (T-47D breast) | TGI (CCRF-CEM leukemia) | TGI (SK-MEL-2 melanoma) | TGI (NCI-H460 lung) | TGI (SF-295 CNS) | TGI (HL-60(TB) leukemia) | TGI (HCT-15 colon) | TGI (U251 CNS) | TGI (DU-145 prostate)
inactive: GI50 (SN12C renal) 16.2 µM | GI50 (UACC-62 melanoma) 12.5 µM | GI50 (HT29 colon) 18.2 µM | GI50 (SK-MEL-5 melanoma) 4.78 µM | GI50 (UO-31 renal) 8.21 µM | GI50 (HS 578T breast) 12.7 µM | GI50 (PC-3 prostate) 8.98 µM | GI50 (OVCAR-8 ovarian) 11.4 µM | GI50 (SK-OV-3 ovarian) > 25 µM | GI50 (OVCAR-3 ovarian) > 18 µM | GI50 (IGROV1 ovarian) > 25 µM | GI50 (KM12 colon) 17.1 µM | GI50 (RPMI-8226 leukemia) 9.23 µM | GI50 (K-562 leukemia) 10.1 µM | GI50 (HOP-62 NSCLC) > 25 µM | GI50 (COLO 205 colon) 16.6 µM | GI50 (BT-549 breast) 9.75 µM | GI50 (RXF 393 renal) 16.9 µM | GI50 (SF-539 CNS) 18.2 µM | GI50 (NCI-H23 lung) 14.6 µM | GI50 (HCC-2998 colon) > 25 µM | GI50 (MCF7 breast) 9.65 µM | GI50 (M14 melanoma) 14.9 µM | GI50 (SNB-19 CNS) 15.3 µM | GI50 (A498 renal) 3.62 µM | GI50 (UACC-257 melanoma) 10 µM | GI50 (OVCAR-4 ovarian) 8.71 µM | GI50 (786-0 renal) > 20.4 µM | GI50 (NCI-H522 lung) > 19.4 µM | GI50 (SR leukemia) 13.6 µM | GI50 (SNB-75 CNS) 8.47 µM | GI50 (MDA-MB-231 breast) > 20.9 µM | GI50 (SK-MEL-28 melanoma) > 22.9 µM | GI50 (NCI-H226 lung) 8.04 µM | GI50 (ACHN renal) > 21 µM | GI50 (MDA-MB-435) 8.98 µM | GI50 (SW-620 colon) > 20.7 µM | GI50 (MOLT-4 leukemia) 10.2 µM | GI50 (LOX IMVI melanoma) > 25 µM | GI50 (CAKI-1 renal) > 25 µM | GI50 (NCI/ADR-RES ovarian) 7.68 µM | GI50 (SF-268 CNS) > 18.5 µM | GI50 (HCT-116 colon) 18.5 µM | GI50 (TK-10 renal) 18.8 µM | GI50 (HOP-92 NSCLC) 2.73 µM | GI50 (MALME-3M melanoma) 7.88 µM | GI50 (OVCAR-5 ovarian) > 25 µM | GI50 (A549 NSCLC) 12.6 µM | GI50 (T-47D breast) 6.52 µM | GI50 (CCRF-CEM leukemia) 18.8 µM | GI50 (SK-MEL-2 melanoma) > 25 µM | GI50 (NCI-H460 lung) 20.5 µM | GI50 (SF-295 CNS) 9.4 µM | GI50 (HL-60(TB) leukemia) 16.2 µM | GI50 (HCT-15 colon) 18.7 µM | GI50 (U251 CNS) 14.2 µM | GI50 (DU-145 prostate) > 21.1 µM
13.3 µM: TGI (SK-MEL-5 melanoma)
